According to patent publication US20080269267A1, “KINASE INHIBITORS USEFUL FOR THE TREATMENT OF MYLEOPROLIFIC DISEASES AND OTHER PROLIFERATIVE DISEASES” (Deciphera Pharmaceuticals, LLC, priority 2007, published 2008):
Counter-ions that a name gives are not always drawn.

How the values were obtained:
[1] = molecular target: T1, BaF3 cells transfected with wild type p210 BCR-Abl (Homo sapiens, UniProt P00519); assay: Ba/F3 p210 whole cell proliferation assay (Cell Titer Blue, 72 hours); format: cell-based; conditions: 72 hours incubation; read-out: Ba/F3 p210 whole cell proliferation assay, antiproliferation IC50
T1 construct: fused on or other part: P11274 (Breakpoint cluster region protein)
Description: (§1) BaF3 cells (parental or transfected with the following: wild type p210 BCR-Abl and T315I p210 BCR-Abl was obtained from Professor Richard Van Etten (New England Medical Center, Boston, Mass.). Briefly, cells were grown in RPMI 1640 supplemented with 10% characterized fetal bovine serum (HyClone, Logan, Utah) at 37 degrees Celsius, 5% CO2, 95% humidity. Cells were allowed to expand until reaching 80% saturation at which point they were subcultured or harvested for assay use.
(§2) A serial dilution of test compound was dispensed into a 96 well black clear bottom plate (Corning, Corning, N.Y.). For each cell line, three thousand cells were added per well in complete growth medium. Plates were incubated for 72 hours at 37 degrees Celsius, 5% CO2, 95% humidity. At the end of the incubation period Cell Titer Blue (Promega, Madison, Wis.) was added to each well and an additional 4.5 hour incubation at 37 degrees Celsius, 5% CO2, 95% humidity was performed. Plates were then read on a BMG Fluostar Optima (BMG, Durham, N.C.) using an excitation of 544 nm and an emission of 612 nm. Data was analyzed using Prism software (Graphpad, San Diego, Calif.) to calculate IC50's.

[2] = molecular target: B-Raf(V600E) kinase (SEQ ID NO:11) (Homo sapiens, UniProt P15056, V600E); assay: B-Raf(V600E) kinase assay (pyruvate kinase/lactate dehydrogenase coupled, MEK1 substrate); conditions: 1 h preincubation at 30° C., ATP 0.2 mM; read-out: B-Raf V600E Enzyme Assay, biochemical IC50
Description: B-Raf(V600E) Kinase Assay
The activity of B-Raf(V600E) kinase (SEQ ID NO:11) was determined by following the formation of ADP from the reaction through coupling with the pyruvate kinase/lactate dehydrogenase system (e.g., Schindler, et al. Science (2000) 289, 1938-1942). In this assay, the oxidation of NADH (thus the decrease at A340nm) was continuously monitored spectrophotometrically. The reaction mixture (100 μl) contained B-Raf(V600E) kinase (0.34 nM nominal concentration, SEQ ID NO:11), unphosphorylated, full-length MEK1 (42 nM, SEQ ID NO:12), MgCl2 (13 mM), pyruvate kinase (3.5 units), lactate dehydrogenase (5.5 units), phosphoenolpyruvate (1 mM), and NADH (0.28 mM), in 60 mM Tris buffer, containing 0.13% octyl-glucoside and 3.5% DMSO concentration at pH 7.5. The test compounds were incubated with the reaction mixture at 30° C. for 1 h. The reaction was initiated by adding ATP (0.2 mM, final concentration). The absorption at 340 nm was continuously monitored for 3 h at 30° C. on a Polarstar Optima plate reader (BMG). The reaction rate was calculated using the 0.5 h to 1.5 h time frame. Percent inhibition was obtained by comparison of reaction rate with that of a control (i.e. with no test compound). IC50 values were calculated from a series of percent inhibition values determined at a range of inhibitor concentrations using software routines as implemented in the GraphPad Prism software package.

[3] = molecular target: T2, BaF3 cells transfected with T315I p210 BCR-Abl (Homo sapiens, UniProt P00519, T315I, cells depend on it); assay: Ba/F3 p210 T315I whole cell proliferation assay (Cell Titer Blue, 72 hours); format: cell-based; conditions: 72 hours incubation; read-out: Ba/F3 p210 T315I whole cell proliferation assay, antiproliferation IC50
T2 construct: fused on or other part: P11274 (Breakpoint cluster region protein)
Description: as §1, §2

[4] = molecular target: T3, c-Kit kinase (SEQ ID NO:9) (Homo sapiens, UniProt P10721); assay: c-Kit kinase assay (pyruvate kinase/lactate dehydrogenase coupled); conditions: <2 min preincubation at 22° C., ATP 200 μM; read-out: c-Kit Enzyme Assay, biochemical IC50
T3 construct: purchased ProQinase
Description: C-Kit Kinase (SEQ ID NO:9) Assay
Activity of c-Kit kinase (SEQ ID NO:9) was determined by following the production of ADP from the kinase reaction through coupling with the pyruvate kinase/lactate dehydrogenase system (e.g., Schindler, et al. Science (2000) 289, 1938-1942). In this assay, the oxidation of NADH (thus the decrease at A340 nm) was continuously monitored spectrophometrically. The reaction mixture ([…]) contained c-Kit (cKIT residues T544-V976, from ProQinase, 5.4 nM), polyE4Y (1 mg/ml), MgCl2 (10 mM), pyruvate kinase (4 units), lactate dehydrogenase (0.7 units), phosphoenol pyruvate (1 mM), and NADH (0.28 mM) in 90 mM Tris buffer containing 0.2% octyl-glucoside and 1% DMSO, pH 7.5. Test compounds were incubated with […] (SEQ ID NO:9) and other reaction reagents at 22° C. for <2 min before ATP (200 μM) was added to start the reaction. The absorption at 340 nm was monitored continuously for 0.5 hours at 30° C. on Polarstar Optima plate reader (BMG). The reaction rate was calculated using the 0 to 0.5 h time frame. Percent inhibition was obtained by comparison of reaction rate with that of a control (i.e. with no test compound). IC50 values were calculated from a series of percent inhibition values determined at a range of inhibitor concentrations using software routines as implemented in the GraphPad Prism software package.

T3 sequence (P10721 with tags, fused parts or gaps): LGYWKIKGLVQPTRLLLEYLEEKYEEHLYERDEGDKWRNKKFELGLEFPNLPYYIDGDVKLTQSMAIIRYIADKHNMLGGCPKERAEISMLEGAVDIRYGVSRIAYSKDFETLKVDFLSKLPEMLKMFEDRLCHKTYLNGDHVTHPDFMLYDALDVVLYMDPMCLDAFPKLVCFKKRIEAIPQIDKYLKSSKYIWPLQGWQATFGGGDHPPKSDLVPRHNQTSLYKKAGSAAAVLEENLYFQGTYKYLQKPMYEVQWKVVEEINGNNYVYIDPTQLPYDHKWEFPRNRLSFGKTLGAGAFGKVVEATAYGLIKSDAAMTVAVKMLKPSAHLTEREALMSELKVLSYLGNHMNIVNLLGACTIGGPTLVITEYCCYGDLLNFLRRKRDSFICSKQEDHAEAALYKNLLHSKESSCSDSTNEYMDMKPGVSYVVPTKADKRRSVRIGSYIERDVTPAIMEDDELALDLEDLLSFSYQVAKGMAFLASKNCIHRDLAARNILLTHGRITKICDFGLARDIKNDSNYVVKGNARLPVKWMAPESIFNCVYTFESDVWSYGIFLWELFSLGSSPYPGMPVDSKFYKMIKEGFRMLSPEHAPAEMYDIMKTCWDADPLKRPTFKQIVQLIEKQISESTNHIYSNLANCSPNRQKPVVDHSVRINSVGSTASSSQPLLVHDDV
Sequence of B-Raf(V600E) kinase (SEQ ID NO:11) (P15056 with tags, fused parts or gaps V600E): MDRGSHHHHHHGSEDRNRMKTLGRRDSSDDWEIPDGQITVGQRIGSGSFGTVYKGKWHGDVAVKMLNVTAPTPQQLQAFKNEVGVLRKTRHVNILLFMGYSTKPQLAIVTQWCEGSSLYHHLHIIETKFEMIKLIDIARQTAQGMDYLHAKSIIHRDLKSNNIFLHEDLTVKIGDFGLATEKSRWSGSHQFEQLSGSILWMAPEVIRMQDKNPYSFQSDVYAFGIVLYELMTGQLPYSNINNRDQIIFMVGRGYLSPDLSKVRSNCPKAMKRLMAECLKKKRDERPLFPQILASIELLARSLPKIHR

| Molecule | GI50 [1] [nM] | IC50 [2] [nM] | GI50 [3] [nM] | IC50 [4] [nM] |
| --- | --- | --- | --- | --- |
| Cn1cc(-c2cc(Oc3ccc(NC(=O)Nc4cc(C(C)(C)C)nn4-c4ccc(C#N)cc4)c(F)c3)ccn2)cn1 [Example 6, 1-(3-tert-butyl-1-(4-cyanophenyl)-1H-pyrazol-5-yl)-3-(2-fluoro-4-(2-(1-methyl-1H-pyrazol-4-yl)pyridin-4-yloxy)phenyl)urea] | < 100 | < 100 | < 100 | – |
| Cn1cc(-c2cc(Oc3ccc(NC(=O)Nc4cc(C(C)(C)C)nn4-c4cccc(C#N)c4)c(F)c3)ccn2)cn1 [Example 4, 1-(3-tert-butyl-1-(3-cyanophenyl)-1H-pyrazol-5-yl)-3-(2-fluoro-4-(2-(1-methyl-1H-pyrazol-4-yl)pyridin-4-yloxy)phenyl)urea hydrochloride] | < 100 | < 100 | < 100 | – |
| CC(C)c1cc(NC(=O)Nc2ccc(Oc3ccnc(-c4cnn(C)c4)c3)cc2F)n(-c2cccc(F)c2)n1 [Example 24, 1-(2-fluoro-4-(2-(1-methyl-1H-pyrazol-4-yl)pyridin-4-yloxy)phenyl)-3-(1-(3-fluorophenyl)-3-isopropyl-1H-pyrazol-5-yl)urea] | < 100 | < 100 | < 100 | – |
| CC(C)c1cc(NC(=O)Nc2ccc(Oc3ccnc(-c4cnn(C)c4)c3)cc2F)n(-c2cccc(C#N)c2)n1 [Example 2, 1-(1-(3-cyanophenyl)-3-isopropyl-1H-pyrazol-5-yl)-3-(2-fluoro-4-(2-(1-methyl-1H-pyrazol-4-yl)pyridin-4-yloxy)phenyl)urea] | < 100 | < 100 | < 100 | < 100 |
| Cc1ccc(-n2nc(C(C)C)cc2NC(=O)Nc2ccc(Oc3ccnc(-c4cnn(C)c4)c3)cc2F)cc1C#N [Example 11, 1-(1-(3-cyano-4-methylphenyl)-3-isopropyl-1H-pyrazol-5-yl)-3-(2-fluoro-4-(2-(1-methyl-1H-pyrazol-4-yl)pyridin-4-yloxy)phenyl)urea] | < 100 | < 100 | < 100 | – |
| CC(C)c1cc(NC(=O)Nc2ccc(Oc3ccnc(-c4cnn(C)c4)c3)c(F)c2)n(-c2cccc(C#N)c2)n1 [Example 16, 1-(1-(3-cyanophenyl)-3-isopropyl-1H-pyrazol-5-yl)-3-(3-fluoro-4-(2-(1-methyl-1H-pyrazol-4-yl)pyridin-4-yloxy)phenyl)urea] | < 100 | < 100 | < 100 | – |
| CC(C)c1cc(NC(=O)Nc2ccc(Oc3ccnc(-c4cnn(C)c4)c3)cc2F)n(-c2ccc(F)c(C#N)c2)n1 [Example 5, 1-(1-(3-cyano-4-fluorophenyl)-3-isopropyl-1H-pyrazol-5-yl)-3-(2-fluoro-4-(2-(1-methyl-1H-pyrazol-4-yl)pyridin-4-yloxy)phenyl)urea] | < 100 | < 100 | < 100 | < 100 |
| CCc1cc(NC(=O)Nc2ccc(Oc3ccnc(-c4cnn(C)c4)c3)cc2F)n(-c2ccc(CO)cc2)n1 [Example 19, 1-(3-ethyl-1-(4-(hydroxymethyl)phenyl)-1H-pyrazol-5-yl)-3-(2-fluoro-4-(2-(1-methyl-1H-pyrazol-4-yl)pyridin-4-yloxy)phenyl)urea] | < 100 | < 1000 | < 100 | < 100 |
| CC(C)(C)c1cc(NC(=O)Nc2ccc(Oc3ccnc(-c4cn[nH]c4)c3)cc2F)n(-c2cccc(C#N)c2)n1 [Example 3, 1-(4-(2-(1H-pyrazol-4-yl)pyridin-4-yloxy)-2-fluorophenyl)-3-(3-tert-butyl-1-(3-cyanophenyl-1H-pyrazol-5-yl)urea hydrochloride] | < 100 | < 100 | < 100 | – |
| CC(C)n1cc(NC(=O)Nc2ccc(Oc3ccnc(-c4cnn(C)c4)c3)cc2F)c(-c2ccccc2)n1 [Example 21, 1-(2-fluoro-4-(2-(1-methyl-1H-pyrazol-4-yl)pyridin-4-yloxy)phenyl)-3-(1-isopropyl-3-phenyl-1H-pyrazol-4-yl)urea] | < 100 | < 1000 | < 100 | < 100 |
| 1-(2-tert-butyl-4-(pyridin-3-yl)pyrimidin-5-yl)-3-(2-fluoro-5-(8-methyl-2-(methylamino)-7-oxo-7,8-dihydropyrido[2,3-d]pyrimidin-6-yl)phenyl)urea [Example 10] | < 100 | < 1000 | < 100 | – |
| Cn1cc(-c2cc(Oc3ccc(NC(=O)Nc4cc(-c5ccccc5F)nn4C)c(F)c3F)ccn2)cn1 [Example 25, 1-(2,3-difluoro-4-(2-(1-methyl-1H-pyrazol-4-yl)pyridin-4-yloxy)phenyl)-3-(3-(2-fluorophenyl)-1-methyl-1H-pyrazol-5-yl)urea] | < 1000 | < 1000 | < 10000 | – |
| Cc1ncc(NC(=O)Nc2ccc(Oc3ccnc(-c4cnn(C)c4)c3)cc2F)c(-c2ccccc2)n1 [Example 14, 1-(2-fluoro-4-(2-(1-methyl-1H-pyrazol-4-yl)pyridin-4-yloxy)phenyl)-3-(2-methyl-4-phenylpyrimidin-5-yl)urea] | < 100 | < 100000 | < 100 | – |
| Cc1c(Oc2ccnc(-c3cnn(C)c3)c2)ccc(NC(=O)Nc2cc(C(C)C)nn2-c2cccc(C#N)c2)c1F [Example 12, 1-(1-(3-cyanophenyl)-3-isopropyl-1H-pyrazol-5-yl)-3-(2-fluoro-3-methyl-4-(2-(1-methyl-1H-pyrazol-4-yl)pyridin-4-yloxy)phenyl)urea] | < 100 | < 100 | < 100 | < 100 |
| CCc1cc(NC(=O)Nc2ccc(Oc3ccnc(-c4cnn(C)c4)c3)cc2F)n(-c2cccc(C#N)c2)n1 [Example 9, 1-(1-(3-cyanophenyl)-3-ethyl-1H-pyrazol-5-yl)-3-(2-fluoro-4-(2-(1-methyl-1H-pyrazol-4-yl)pyridin-4-yloxy)phenyl)urea] | < 100 | < 1000 | < 100 | < 100 |
| Cn1cc(-c2cc(Oc3ccc(NC(=O)Nc4cc(C(C)(C)C)nn4-c4cccc(CO)c4)c(F)c3)ccn2)cn1 [Example 7, 1-(3-tert-butyl-1-(3-(hydroxymethyl)phenyl)-1H-pyrazol-5-yl)-3-(2-fluoro-4-(2-(1-methyl-1H-pyrazol-4-yl)pyridin-4-yloxy)phenyl)urea p-toluenesulfonic acid] | < 100 | < 100 | < 100 | – |
| Cn1cc(-c2cc(Oc3ccc(NC(=O)Nc4cc(C(C)(C)C)nn4-c4ccc(CO)cc4)c(F)c3)ccn2)cn1 [Example 8, 1-(3-tert-butyl-1-(4-(hydroxymethyl)phenyl)-1H-pyrazol-5-yl)-3-(2-fluoro-4-(2-(1-methyl-1H-pyrazol-4-yl)pyridin-4-yloxy)phenyl)urea] | < 100 | < 100 | < 100 | – |
